Experimental data: PMC10700596 (Nature Communications, 2023)
Where “and” joins values, the source holds several entries; their conditions need not be identical. Equal entries are not always repeated.

Assays:
Type in all cases: cell-based
[1] = biological target: 320 GPCRs (Homo sapiens, UniProt O00254)
[2] = biological target: 320 GPCRs (Homo sapiens, UniProt O00270)
[3] = biological target: 320 GPCRs (Homo sapiens, UniProt O00421)
[4] = biological target: 320 GPCRs (Homo sapiens, UniProt O00574)
320 GPCRs (Homo sapiens, UniProt O00574), sequence (O00574 whole entry): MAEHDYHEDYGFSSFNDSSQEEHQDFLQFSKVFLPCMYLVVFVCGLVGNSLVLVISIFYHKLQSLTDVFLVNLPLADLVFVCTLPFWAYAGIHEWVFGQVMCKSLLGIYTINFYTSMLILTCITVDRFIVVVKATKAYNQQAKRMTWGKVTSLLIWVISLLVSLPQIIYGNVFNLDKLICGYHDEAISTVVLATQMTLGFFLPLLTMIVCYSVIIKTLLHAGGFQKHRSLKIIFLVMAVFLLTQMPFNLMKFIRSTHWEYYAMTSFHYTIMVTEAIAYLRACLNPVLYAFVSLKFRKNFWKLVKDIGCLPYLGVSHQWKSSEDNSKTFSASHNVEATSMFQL

[5] = biological target: 320 GPCRs (Homo sapiens, UniProt O95136)
[6] = biological target: 320 GPCRs (Homo sapiens, UniProt P21453)
[7] = biological target: 320 GPCRs (Homo sapiens, UniProt P23945)
[8] = biological target: 320 GPCRs (Homo sapiens, UniProt P24530)
[9] = biological target: 320 GPCRs (Homo sapiens, UniProt P25090)
[10] = biological target: 320 GPCRs (Homo sapiens, UniProt P30968)
[11] = biological target: 320 GPCRs (Homo sapiens, UniProt P32238)
320 GPCRs (Homo sapiens, UniProt P32238), sequence (P32238 whole entry): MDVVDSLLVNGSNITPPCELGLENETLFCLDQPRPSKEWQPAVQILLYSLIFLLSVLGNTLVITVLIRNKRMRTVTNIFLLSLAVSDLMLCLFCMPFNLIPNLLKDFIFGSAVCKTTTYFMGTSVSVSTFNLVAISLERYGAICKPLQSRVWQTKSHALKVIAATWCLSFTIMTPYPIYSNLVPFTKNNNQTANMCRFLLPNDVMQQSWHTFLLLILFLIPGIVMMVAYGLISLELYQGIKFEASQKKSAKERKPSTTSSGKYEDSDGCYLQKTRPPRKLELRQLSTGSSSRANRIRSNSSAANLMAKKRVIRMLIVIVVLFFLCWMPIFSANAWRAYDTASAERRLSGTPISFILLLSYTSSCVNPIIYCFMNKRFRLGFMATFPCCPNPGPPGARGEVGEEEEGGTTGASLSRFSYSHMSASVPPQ

[12] = biological target: 320 GPCRs (Homo sapiens, UniProt P34972)
[13] = biological target: 320 GPCRs (Homo sapiens, UniProt P41146)
320 GPCRs (Homo sapiens, UniProt P41146), sequence (P41146 whole entry): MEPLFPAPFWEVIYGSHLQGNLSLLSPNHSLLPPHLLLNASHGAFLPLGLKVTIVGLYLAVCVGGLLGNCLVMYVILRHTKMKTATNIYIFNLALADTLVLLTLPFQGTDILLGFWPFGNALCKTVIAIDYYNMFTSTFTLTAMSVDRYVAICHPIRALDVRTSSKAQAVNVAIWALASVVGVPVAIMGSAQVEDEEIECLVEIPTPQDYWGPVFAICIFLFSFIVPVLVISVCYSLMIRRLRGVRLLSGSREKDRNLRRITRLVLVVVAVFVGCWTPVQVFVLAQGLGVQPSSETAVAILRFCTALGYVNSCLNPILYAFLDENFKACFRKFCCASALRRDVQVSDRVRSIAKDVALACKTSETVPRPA

[14] = biological target: 320 GPCRs (Homo sapiens, UniProt P41594)
[15] = biological target: 320 GPCRs (Homo sapiens, UniProt P41595)
320 GPCRs (Homo sapiens, UniProt P41595), sequence (P41595 whole entry): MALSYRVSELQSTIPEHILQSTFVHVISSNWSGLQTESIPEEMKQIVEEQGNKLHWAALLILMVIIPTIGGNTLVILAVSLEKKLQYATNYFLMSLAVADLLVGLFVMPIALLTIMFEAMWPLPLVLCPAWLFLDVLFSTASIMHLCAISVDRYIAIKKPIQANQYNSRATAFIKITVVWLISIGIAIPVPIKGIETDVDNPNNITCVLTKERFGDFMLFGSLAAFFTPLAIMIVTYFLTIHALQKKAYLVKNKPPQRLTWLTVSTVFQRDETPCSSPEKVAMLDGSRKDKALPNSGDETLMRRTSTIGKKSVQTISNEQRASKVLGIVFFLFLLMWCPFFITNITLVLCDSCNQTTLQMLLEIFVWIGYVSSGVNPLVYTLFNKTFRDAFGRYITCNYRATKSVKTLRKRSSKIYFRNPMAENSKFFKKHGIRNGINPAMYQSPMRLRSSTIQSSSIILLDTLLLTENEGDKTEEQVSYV

[16] = biological target: 320 GPCRs (Homo sapiens, UniProt P43088)
[17] = biological target: 320 GPCRs (Homo sapiens, UniProt P43115)
[18] = biological target: 320 GPCRs (Homo sapiens, UniProt P43116)
[19] = biological target: 320 GPCRs (Homo sapiens, UniProt P43119)
[20] = biological target: 320 GPCRs (Homo sapiens, UniProt P47211)
[21] = biological target: 320 GPCRs (Homo sapiens, UniProt P47775)
[22] = biological target: 320 GPCRs (Homo sapiens, UniProt P47871)
[23] = biological target: 320 GPCRs (Homo sapiens, UniProt P49019)
320 GPCRs (Homo sapiens, UniProt P49019), sequence (P49019 whole entry): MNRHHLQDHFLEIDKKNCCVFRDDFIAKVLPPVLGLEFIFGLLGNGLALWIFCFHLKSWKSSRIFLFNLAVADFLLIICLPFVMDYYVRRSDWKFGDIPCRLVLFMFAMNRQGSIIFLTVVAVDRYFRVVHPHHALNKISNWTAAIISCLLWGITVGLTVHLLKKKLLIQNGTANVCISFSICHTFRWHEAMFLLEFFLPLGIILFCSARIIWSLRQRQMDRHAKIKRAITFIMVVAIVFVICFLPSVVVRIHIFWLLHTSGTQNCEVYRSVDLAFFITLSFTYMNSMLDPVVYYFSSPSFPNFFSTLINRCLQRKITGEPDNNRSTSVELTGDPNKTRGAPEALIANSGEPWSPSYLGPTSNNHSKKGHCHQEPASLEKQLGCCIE

[24] = biological target: 320 GPCRs (Homo sapiens, UniProt P49685)
[25] = biological target: 320 GPCRs (Homo sapiens, UniProt Q13255)
[26] = biological target: 320 GPCRs (Homo sapiens, UniProt Q14416)
[27] = biological target: 320 GPCRs (Homo sapiens, UniProt Q14439)
[28] = biological target: 320 GPCRs (Homo sapiens, UniProt Q15760)
[29] = biological target: 320 GPCRs (Homo sapiens, UniProt Q16581)
320 GPCRs (Homo sapiens, UniProt Q16581), sequence (Q16581 whole entry): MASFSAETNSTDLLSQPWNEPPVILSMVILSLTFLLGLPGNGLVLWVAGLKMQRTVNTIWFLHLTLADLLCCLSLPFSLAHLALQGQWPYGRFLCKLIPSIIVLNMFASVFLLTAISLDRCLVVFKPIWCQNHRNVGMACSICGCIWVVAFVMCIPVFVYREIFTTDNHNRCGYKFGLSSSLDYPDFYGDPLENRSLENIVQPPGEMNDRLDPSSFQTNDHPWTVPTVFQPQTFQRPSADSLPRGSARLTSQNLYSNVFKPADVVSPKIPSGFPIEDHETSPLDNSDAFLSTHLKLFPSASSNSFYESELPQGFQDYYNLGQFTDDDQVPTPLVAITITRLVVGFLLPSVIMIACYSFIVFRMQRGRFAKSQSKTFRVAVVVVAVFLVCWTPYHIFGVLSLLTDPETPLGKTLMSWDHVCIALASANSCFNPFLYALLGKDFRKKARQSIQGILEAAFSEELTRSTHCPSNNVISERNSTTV

[30] = biological target: 320 GPCRs (Homo sapiens, UniProt Q16602)
[31] = biological target: 320 GPCRs (Homo sapiens, UniProt Q7Z601)
[32] = biological target: 320 GPCRs (Homo sapiens, UniProt Q8IZF4)
320 GPCRs (Homo sapiens, UniProt Q8IZF4), sequence (Q8IZF4 22-528): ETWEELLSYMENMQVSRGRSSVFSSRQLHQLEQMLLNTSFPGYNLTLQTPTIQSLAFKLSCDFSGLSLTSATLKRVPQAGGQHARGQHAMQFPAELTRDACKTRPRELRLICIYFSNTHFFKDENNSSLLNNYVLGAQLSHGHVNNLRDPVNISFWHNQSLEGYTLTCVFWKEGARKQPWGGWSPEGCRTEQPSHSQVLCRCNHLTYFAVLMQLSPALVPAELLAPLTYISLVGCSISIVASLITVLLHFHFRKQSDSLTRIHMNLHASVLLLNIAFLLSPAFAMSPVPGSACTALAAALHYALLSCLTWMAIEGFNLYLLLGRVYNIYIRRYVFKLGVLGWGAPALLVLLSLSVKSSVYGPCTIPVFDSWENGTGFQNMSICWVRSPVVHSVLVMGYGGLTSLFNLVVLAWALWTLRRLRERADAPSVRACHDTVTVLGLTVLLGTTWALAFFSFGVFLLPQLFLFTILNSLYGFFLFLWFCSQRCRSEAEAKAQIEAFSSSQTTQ

[33] = biological target: 320 GPCRs (Homo sapiens, UniProt Q8IZF5)
[34] = biological target: 320 GPCRs (Homo sapiens, UniProt Q8NFJ6)
[35] = biological target: 320 GPCRs (Homo sapiens, UniProt Q8TDV2)
[36] = biological target: 320 GPCRs (Homo sapiens, UniProt Q8TDV5)
[37] = biological target: 320 GPCRs (Homo sapiens, UniProt Q96G91)
320 GPCRs (Homo sapiens, UniProt Q96G91), sequence (Q96G91 whole entry): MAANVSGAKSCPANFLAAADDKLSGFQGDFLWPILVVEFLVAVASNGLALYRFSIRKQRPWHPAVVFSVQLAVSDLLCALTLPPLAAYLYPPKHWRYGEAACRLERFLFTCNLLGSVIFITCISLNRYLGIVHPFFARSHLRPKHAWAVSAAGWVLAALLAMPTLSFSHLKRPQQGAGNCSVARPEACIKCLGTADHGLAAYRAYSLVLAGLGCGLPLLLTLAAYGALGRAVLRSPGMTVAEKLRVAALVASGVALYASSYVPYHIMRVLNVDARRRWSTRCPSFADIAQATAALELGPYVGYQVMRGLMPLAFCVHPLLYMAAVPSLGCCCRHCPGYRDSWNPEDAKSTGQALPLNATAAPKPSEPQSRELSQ

[38] = biological target: 320 GPCRs (Homo sapiens, UniProt Q96LB0)
320 GPCRs (Homo sapiens, UniProt Q96LB0), sequence (Q96LB0 whole entry): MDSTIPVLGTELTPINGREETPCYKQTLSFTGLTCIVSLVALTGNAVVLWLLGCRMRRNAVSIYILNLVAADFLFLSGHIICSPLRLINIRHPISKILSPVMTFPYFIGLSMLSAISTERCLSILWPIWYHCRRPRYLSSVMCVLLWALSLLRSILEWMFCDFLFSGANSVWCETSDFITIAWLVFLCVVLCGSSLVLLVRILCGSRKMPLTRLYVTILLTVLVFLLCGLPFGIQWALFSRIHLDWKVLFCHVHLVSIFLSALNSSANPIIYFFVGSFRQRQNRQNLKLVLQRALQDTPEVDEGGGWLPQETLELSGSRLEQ

[39] = biological target: 320 GPCRs (Homo sapiens, UniProt Q96P69)
320 GPCRs (Homo sapiens, UniProt Q96P69), sequence (Q96P69 whole entry): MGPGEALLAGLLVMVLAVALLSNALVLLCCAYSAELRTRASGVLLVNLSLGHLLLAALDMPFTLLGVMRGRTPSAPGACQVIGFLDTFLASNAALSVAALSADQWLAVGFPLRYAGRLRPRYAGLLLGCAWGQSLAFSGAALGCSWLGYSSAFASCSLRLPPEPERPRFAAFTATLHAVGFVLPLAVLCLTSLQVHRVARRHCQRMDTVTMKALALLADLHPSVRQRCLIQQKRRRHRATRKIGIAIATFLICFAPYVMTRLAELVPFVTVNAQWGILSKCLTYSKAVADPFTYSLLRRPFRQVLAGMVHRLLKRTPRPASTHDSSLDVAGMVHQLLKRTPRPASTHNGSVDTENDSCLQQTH

[40] = biological target: 320 GPCRs (Homo sapiens, UniProt Q99677)
[41] = biological target: 320 GPCRs (Homo sapiens, UniProt Q9BZJ8)
[42] = biological target: 320 GPCRs (Homo sapiens, UniProt Q9HBX9)
320 GPCRs (Homo sapiens, UniProt Q9HBX9), sequence (Q9HBX9 whole entry): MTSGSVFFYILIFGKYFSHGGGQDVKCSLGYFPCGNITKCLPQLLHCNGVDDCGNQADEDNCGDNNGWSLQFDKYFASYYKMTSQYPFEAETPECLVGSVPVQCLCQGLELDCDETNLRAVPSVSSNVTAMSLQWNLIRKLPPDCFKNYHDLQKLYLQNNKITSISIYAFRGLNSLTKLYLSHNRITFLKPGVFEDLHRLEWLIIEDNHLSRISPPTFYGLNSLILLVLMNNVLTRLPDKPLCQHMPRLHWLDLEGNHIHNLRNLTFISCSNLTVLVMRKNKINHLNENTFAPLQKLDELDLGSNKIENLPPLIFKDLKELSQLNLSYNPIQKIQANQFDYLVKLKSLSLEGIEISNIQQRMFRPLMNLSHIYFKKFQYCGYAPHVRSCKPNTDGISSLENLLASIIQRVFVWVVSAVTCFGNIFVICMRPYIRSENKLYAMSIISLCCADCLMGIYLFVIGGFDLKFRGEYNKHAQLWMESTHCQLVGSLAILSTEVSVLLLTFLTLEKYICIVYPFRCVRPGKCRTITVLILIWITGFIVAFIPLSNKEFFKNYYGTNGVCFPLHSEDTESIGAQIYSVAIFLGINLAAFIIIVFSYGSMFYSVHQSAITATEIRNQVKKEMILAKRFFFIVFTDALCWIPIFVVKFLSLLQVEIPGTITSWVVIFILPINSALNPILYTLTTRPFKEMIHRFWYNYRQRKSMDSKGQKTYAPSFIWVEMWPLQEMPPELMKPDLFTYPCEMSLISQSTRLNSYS

[43] = biological target: 320 GPCRs (Homo sapiens, UniProt Q9UKP6)

## O=C(O)C1CCC2(CC1)CC(Nc1ncnc3[nH]c4c(F)cccc4c13)C2 (stereo not shown) [Compound 74, OC(=O)C1CCC2(CC(C2)NC=3N=CN=C4NC=5C(F)=CC=CC5C34)CC1]
[1]
  RLU (Fold over Basal): 2 Fold over Basal and 1.8 Fold over Basal and 3 Fold over Basal and 2.4 Fold over Basal
[2]
  RLU (Fold over Basal): 1.8 Fold over Basal and 1.3 Fold over Basal
[3]
  RLU (Fold over Basal): 2.1 Fold over Basal and 1.6 Fold over Basal and 1.9 Fold over Basal and 2.4 Fold over Basal
[4]
  RLU (Fold over Basal): 0.7 Fold over Basal and 1.2 Fold over Basal and 0.9 Fold over Basal and 0.6 Fold over Basal
[5]
  RLU (Fold over Basal): 0.3 Fold over Basal and 0.2 Fold over Basal
[6]
  RLU (Fold over Basal): 1 Fold over Basal and 1.6 Fold over Basal and 1.5 Fold over Basal
[7]
  RLU (Fold over Basal): 1 Fold over Basal and 0.6 Fold over Basal
[8]
  RLU (Fold over Basal): 1.2 Fold over Basal and 0.6 Fold over Basal and 0.8 Fold over Basal and 0.9 Fold over Basal
[9]
  RLU (Fold over Basal): 1.2 Fold over Basal and 1.5 Fold over Basal and 1.6 Fold over Basal and 0.9 Fold over Basal
[10]
  RLU (Fold over Basal): 1 Fold over Basal and 0.5 Fold over Basal and 0.6 Fold over Basal
[11]
  RLU (Fold over Basal): 1.2 Fold over Basal and 0.7 Fold over Basal and 0.6 Fold over Basal and 1 Fold over Basal
[12]
  RLU (Fold over Basal): 2.1 Fold over Basal and 1.3 Fold over Basal and 1.7 Fold over Basal and 1.5 Fold over Basal
[13]
  RLU (Fold over Basal): 0.8 Fold over Basal and 0.7 Fold over Basal and 1.3 Fold over Basal and 0.9 Fold over Basal
[14]
  RLU (Fold over Basal): 0.8 Fold over Basal and 1.3 Fold over Basal and 0.9 Fold over Basal and 0.7 Fold over Basal
[15]
  RLU (Fold over Basal): 0.8 Fold over Basal and 0.9 Fold over Basal and 0.7 Fold over Basal and 1 Fold over Basal
[16]
  RLU (Fold over Basal): 1.2 Fold over Basal and 1.4 Fold over Basal and 1 Fold over Basal
[17]
  RLU (Fold over Basal): 0.5 Fold over Basal and 0.7 Fold over Basal
[18]
  RLU (Fold over Basal): 1.1 Fold over Basal and 1.2 Fold over Basal and 2 Fold over Basal and 1.3 Fold over Basal
[19]
  RLU (Fold over Basal): 0.9 Fold over Basal and 0.6 Fold over Basal and 0.7 Fold over Basal and 1 Fold over Basal
[20]
  RLU (Fold over Basal): 0.8 Fold over Basal and 0.7 Fold over Basal and 0.9 Fold over Basal and 0.6 Fold over Basal
[21]
  RLU (Fold over Basal): 0.6 Fold over Basal and 1 Fold over Basal
[22]
  RLU (Fold over Basal): 1 Fold over Basal and 0.5 Fold over Basal and 0.8 Fold over Basal
[23]
  RLU (Fold over Basal): 0.9 Fold over Basal and 0.7 Fold over Basal and 1 Fold over Basal
[24]
  RLU (Fold over Basal): 0.4 Fold over Basal and 0.5 Fold over Basal and 0.6 Fold over Basal and 0.7 Fold over Basal
[25]
  RLU (Fold over Basal): 0.9 Fold over Basal and 1.1 Fold over Basal and 0.8 Fold over Basal
[26]
  RLU (Fold over Basal): 1 Fold over Basal and 1.1 Fold over Basal and 0.9 Fold over Basal
[27]
  RLU (Fold over Basal): 0.8 Fold over Basal and 1.3 Fold over Basal and 1 Fold over Basal
[28]
  RLU (Fold over Basal): 1 Fold over Basal and 1.3 Fold over Basal and 0.9 Fold over Basal and 1.8 Fold over Basal
[29]
  RLU (Fold over Basal): 1.2 Fold over Basal and 1.3 Fold over Basal and 0.8 Fold over Basal and 1 Fold over Basal
[30]
  RLU (Fold over Basal): 0.9 Fold over Basal and 1.2 Fold over Basal and 1.4 Fold over Basal and 1.1 Fold over Basal
[31]
  RLU (Fold over Basal): 0.6 Fold over Basal and 1 Fold over Basal
[32]
  RLU (Fold over Basal): 0.8 Fold over Basal and 1.1 Fold over Basal and 1.2 Fold over Basal
[33]
  RLU (Fold over Basal): 1.6 Fold over Basal and 1.9 Fold over Basal and 1.1 Fold over Basal and 1.2 Fold over Basal
[34]
  RLU (Fold over Basal): 0.7 Fold over Basal and 1.4 Fold over Basal and 1.3 Fold over Basal and 1.1 Fold over Basal
[35]
  RLU (Fold over Basal): 0.8 Fold over Basal and 0.5 Fold over Basal and 1 Fold over Basal
[36]
  RLU (Fold over Basal): 0.5 Fold over Basal and 0.6 Fold over Basal and 0.8 Fold over Basal
[37]
  RLU (Fold over Basal): 1 Fold over Basal and 0.7 Fold over Basal and 1.1 Fold over Basal and 1.4 Fold over Basal
[38]
  RLU (Fold over Basal): 1 Fold over Basal and 1.4 Fold over Basal and 0.9 Fold over Basal
[39]
  RLU (Fold over Basal): 1 Fold over Basal and 0.5 Fold over Basal and 0.9 Fold over Basal
[40]
  RLU (Fold over Basal): 0.9 Fold over Basal and 0.7 Fold over Basal and 0.8 Fold over Basal
[41]
  RLU (Fold over Basal): 0.8 Fold over Basal and 1.4 Fold over Basal and 1 Fold over Basal and 1.1 Fold over Basal
[42]
  RLU (Fold over Basal): 0.7 Fold over Basal and 0.9 Fold over Basal and 0.5 Fold over Basal
[43]
  RLU (Fold over Basal): 0.6 Fold over Basal and 0.7 Fold over Basal and 0.9 Fold over Basal
